Test results reported in the NIST ThermoML archive (doi:10.1016/j.tca.2019.02.008).
± gives the expanded uncertainty stated by the source.

How the values were obtained:
[1] = for vapor or sublimation pressure: Transpiration method; for Triple point temperature: DSC
[2] = Molar enthalpy of transition or fusion; details: DSC

With `Br.CN` [methylammonium bromide] the “vapor or sublimation pressure” value ([1]; 433 K, Crystal 2) was 0.0057 ± 0.0006 kPa, the “vapor or sublimation pressure” value ([1]; 444 K, Crystal 2) was 0.0104 ± 0.0011 kPa and the “vapor or sublimation pressure” value ([1]; 454 K, Crystal 2) was 0.0202 ± 0.0022 kPa. The “vapor or sublimation pressure” value ([1]; 463 K, Crystal 2) was 0.0348 ± 0.0037 kPa, the “vapor or sublimation pressure” value ([1]; 468 K, Crystal 2) was 0.0413 ± 0.0044 kPa and the “vapor or sublimation pressure” value ([1]; 473 K, Crystal 2) was 0.0576 ± 0.0061 kPa. For the same compound, the “vapor or sublimation pressure” value ([1]; 488 K, Crystal 1) was 0.1234 ± 0.013 kPa, the “vapor or sublimation pressure” value ([1]; 493 K, Crystal 1) was 0.1563 ± 0.017 kPa and the “vapor or sublimation pressure” value ([1]; 498 K, Crystal 1) was 0.1897 ± 0.02 kPa. The “vapor or sublimation pressure” value ([1]; 503 K, Crystal 1) was 0.2394 ± 0.025 kPa, the Triple point temperature ([1]; Crystal 1) was 520.5 ± 1 K and the Triple point temperature ([1]; Crystal 2) was 480.8 ± 1.1 K. The Triple point temperature ([1]; Crystal 3) was 392.1 ± 0.9 K, the “Molar enthalpy of transition or fusion” value ([2]; Crystal 2) was 0.868 ± 0.0645 kcal/mol and the “Molar enthalpy of transition or fusion” value ([2]; Crystal 3) was 0.351 ± 0.0335 kcal/mol.
